Patent US20250353864A1, “INDAZOLE CONTAINING MACROCYCLES AND THEIR USE” (BLOSSOMHILL THERAPEUTICS, INC., priority 2022, published 2025)

What was measured:
Assay type in all cases: biochemical
[1] = biological target: EGFR Δ746-750 mutant (Homo sapiens (Human), UniProt P00533, DEL746-750); experiment: HotSpot radiometric kinase assay, EGFR Δ746-750 mutant; conditions: 10 μM ATP
Experimental: (§1) Biochemical Assays for Inhibition of Wild-Type and Mutant EGFRs
(§2) Briefly, specific kinase/substrate pairs along with required cofactors were prepared in reaction buffer; 20 mM Hepes pH 7.5, 10 mM […], 1 mM EGTA, 0.02% Brij35, 0.02 mg/ml BSA, 0.1 mM Na3VO4, 2 mM DTT, 1% DMSO. Compounds were delivered into the reaction, followed […] later by addition of a mixture of ATP (Sigma, St. Louis MO) and ^33P ATP (Perkin Elmer, Waltham MA) to a final concentration of 10 μM. Reactions were carried out at room temperature for 120 min, followed by spotting of the reactions onto P81 ion exchange filter paper (Whatman Inc., Piscataway, NJ). Unbound phosphate was removed by extensive washing of filters in 0.75% phosphoric acid. […] IC50 values and curve fits were obtained using Prism (GraphPad Software).

[2] = biological target: EGFR (D770_N771insNPG) (Homo sapiens (Human), UniProt P00533, INS770NPG); experiment: HotSpot radiometric kinase assay, EGFR (D770_N771insNPG); conditions: 10 μM ATP, read-out: EGFR (Δ770_N771insNPG) IC50
Experimental: as §1, §2

[3] = biological target: EGFR L858R/T790M/C797S mutant (Homo sapiens (Human), UniProt P00533, C797S/L858R/T790M); experiment: HotSpot radiometric kinase assay, EGFR L858R/T790M/C797S mutant; conditions: 10 μM ATP
Sequence of EGFR L858R/T790M/C797S mutant (P00533 25-1210 T790M/C797S/L858R): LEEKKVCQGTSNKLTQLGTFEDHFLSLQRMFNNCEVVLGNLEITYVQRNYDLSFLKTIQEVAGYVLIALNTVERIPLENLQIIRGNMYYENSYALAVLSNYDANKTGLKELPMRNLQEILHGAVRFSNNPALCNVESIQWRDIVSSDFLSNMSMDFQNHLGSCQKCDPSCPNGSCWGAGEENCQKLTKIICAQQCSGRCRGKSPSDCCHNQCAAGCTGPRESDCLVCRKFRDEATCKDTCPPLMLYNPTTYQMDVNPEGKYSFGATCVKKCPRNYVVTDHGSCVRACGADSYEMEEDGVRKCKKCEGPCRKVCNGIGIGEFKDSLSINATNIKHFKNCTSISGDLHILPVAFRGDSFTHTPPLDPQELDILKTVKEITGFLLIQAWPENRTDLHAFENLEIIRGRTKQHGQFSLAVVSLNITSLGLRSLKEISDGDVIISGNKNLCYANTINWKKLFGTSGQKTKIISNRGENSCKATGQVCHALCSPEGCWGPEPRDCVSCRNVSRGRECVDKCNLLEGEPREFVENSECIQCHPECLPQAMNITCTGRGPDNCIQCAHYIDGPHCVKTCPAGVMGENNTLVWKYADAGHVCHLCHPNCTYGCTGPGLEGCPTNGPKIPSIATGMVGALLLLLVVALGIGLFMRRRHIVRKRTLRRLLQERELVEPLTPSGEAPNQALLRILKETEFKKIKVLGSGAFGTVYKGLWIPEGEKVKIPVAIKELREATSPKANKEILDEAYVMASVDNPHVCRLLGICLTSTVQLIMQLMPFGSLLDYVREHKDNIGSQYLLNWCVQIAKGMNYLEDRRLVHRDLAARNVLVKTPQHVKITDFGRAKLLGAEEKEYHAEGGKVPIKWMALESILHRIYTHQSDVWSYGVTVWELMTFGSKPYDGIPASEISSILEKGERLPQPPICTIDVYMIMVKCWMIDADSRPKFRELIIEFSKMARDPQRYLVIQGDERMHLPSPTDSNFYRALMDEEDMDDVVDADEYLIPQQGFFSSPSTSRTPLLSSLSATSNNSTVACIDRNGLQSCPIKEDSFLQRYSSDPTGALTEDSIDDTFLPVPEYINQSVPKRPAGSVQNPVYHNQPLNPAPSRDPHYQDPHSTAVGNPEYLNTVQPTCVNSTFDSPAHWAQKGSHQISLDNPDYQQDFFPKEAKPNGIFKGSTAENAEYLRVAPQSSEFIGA
Experimental: as §1, §2

[4] = biological target: EGFR L858R/T790M mutant (Homo sapiens (Human), UniProt P00533, L858R/T790M); experiment: HotSpot radiometric kinase assay, EGFR L858R/T790M mutant; conditions: 10 μM ATP
Sequence of EGFR L858R/T790M mutant (P00533 25-1210 T790M/L858R): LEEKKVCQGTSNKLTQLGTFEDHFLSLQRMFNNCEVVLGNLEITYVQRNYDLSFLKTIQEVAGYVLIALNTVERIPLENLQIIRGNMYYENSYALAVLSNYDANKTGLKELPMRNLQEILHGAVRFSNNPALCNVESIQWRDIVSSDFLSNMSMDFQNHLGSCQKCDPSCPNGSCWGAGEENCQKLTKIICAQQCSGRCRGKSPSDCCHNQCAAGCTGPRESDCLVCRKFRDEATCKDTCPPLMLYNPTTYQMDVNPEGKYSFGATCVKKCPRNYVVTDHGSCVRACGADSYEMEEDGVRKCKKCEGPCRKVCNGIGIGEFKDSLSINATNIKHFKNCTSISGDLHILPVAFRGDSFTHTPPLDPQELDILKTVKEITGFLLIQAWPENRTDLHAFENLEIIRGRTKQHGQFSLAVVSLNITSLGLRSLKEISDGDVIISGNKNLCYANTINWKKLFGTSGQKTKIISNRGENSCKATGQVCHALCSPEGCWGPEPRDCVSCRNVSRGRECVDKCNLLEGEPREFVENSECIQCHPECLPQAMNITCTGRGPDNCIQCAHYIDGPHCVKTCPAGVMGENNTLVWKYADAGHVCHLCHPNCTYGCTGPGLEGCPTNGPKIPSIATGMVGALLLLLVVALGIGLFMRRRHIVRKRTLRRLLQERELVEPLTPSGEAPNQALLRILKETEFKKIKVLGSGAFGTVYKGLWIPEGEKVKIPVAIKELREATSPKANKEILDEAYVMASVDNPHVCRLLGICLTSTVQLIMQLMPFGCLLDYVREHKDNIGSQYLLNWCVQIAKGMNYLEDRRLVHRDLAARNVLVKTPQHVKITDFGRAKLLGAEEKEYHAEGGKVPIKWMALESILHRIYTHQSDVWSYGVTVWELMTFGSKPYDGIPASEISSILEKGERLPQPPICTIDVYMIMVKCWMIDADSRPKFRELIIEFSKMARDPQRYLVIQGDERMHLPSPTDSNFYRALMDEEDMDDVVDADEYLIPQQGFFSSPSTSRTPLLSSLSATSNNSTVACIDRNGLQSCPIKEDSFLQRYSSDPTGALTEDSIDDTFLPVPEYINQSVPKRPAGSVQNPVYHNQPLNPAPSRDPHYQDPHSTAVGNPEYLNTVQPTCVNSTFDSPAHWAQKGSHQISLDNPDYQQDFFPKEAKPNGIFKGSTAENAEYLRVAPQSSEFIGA
Experimental: as §1, §2

[5] = biological target: EGFR L858R mutant (Homo sapiens (Human), UniProt P00533, L858R); experiment: HotSpot radiometric kinase assay, EGFR L858R mutant; conditions: 10 μM ATP
Sequence of EGFR L858R mutant (P00533 25-1210 L858R): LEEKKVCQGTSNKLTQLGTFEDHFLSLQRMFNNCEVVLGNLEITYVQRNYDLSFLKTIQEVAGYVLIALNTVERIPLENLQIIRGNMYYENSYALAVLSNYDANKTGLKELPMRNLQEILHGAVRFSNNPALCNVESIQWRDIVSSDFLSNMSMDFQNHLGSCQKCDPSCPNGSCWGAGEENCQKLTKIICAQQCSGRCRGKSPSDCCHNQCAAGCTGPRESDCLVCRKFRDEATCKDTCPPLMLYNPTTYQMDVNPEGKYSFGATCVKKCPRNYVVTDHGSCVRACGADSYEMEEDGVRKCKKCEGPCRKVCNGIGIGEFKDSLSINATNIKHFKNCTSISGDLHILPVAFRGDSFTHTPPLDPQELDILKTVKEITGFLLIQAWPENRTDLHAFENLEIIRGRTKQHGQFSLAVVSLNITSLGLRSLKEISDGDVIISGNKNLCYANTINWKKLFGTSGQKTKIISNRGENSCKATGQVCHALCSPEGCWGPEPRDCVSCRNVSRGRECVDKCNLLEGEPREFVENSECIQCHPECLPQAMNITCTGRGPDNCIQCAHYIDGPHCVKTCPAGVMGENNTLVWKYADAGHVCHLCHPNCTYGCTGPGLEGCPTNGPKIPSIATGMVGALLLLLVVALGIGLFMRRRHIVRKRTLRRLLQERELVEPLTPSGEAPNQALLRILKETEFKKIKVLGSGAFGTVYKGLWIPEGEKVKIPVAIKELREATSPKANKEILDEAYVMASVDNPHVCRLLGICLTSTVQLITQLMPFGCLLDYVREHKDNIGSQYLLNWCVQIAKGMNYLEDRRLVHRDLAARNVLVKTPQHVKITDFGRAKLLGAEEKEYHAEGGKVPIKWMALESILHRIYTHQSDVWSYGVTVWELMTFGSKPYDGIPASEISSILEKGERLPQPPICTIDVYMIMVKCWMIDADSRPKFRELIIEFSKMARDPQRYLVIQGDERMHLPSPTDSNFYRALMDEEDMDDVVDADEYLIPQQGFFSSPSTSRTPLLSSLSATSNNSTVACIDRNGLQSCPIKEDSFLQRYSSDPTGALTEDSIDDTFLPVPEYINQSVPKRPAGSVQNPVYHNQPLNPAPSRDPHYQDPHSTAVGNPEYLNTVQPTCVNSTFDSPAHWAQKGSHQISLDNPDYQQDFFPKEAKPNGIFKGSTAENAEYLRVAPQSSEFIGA
Experimental: as §1, §2

[6] = biological target: EGFR Δ746-750/C797S mutant (Homo sapiens (Human), UniProt P00533, C797S/DEL746-750); experiment: HotSpot radiometric kinase assay, EGFR Δ746-750/C797S mutant; conditions: 10 μM ATP
Experimental: as §1, §2

[7] = biological target: EGFR WT (Homo sapiens (Human), UniProt P00533); experiment: HotSpot radiometric kinase assay (Reaction Biology), EGFR WT; conditions: 10 μM ATP
Sequence of EGFR WT (P00533 25-1210): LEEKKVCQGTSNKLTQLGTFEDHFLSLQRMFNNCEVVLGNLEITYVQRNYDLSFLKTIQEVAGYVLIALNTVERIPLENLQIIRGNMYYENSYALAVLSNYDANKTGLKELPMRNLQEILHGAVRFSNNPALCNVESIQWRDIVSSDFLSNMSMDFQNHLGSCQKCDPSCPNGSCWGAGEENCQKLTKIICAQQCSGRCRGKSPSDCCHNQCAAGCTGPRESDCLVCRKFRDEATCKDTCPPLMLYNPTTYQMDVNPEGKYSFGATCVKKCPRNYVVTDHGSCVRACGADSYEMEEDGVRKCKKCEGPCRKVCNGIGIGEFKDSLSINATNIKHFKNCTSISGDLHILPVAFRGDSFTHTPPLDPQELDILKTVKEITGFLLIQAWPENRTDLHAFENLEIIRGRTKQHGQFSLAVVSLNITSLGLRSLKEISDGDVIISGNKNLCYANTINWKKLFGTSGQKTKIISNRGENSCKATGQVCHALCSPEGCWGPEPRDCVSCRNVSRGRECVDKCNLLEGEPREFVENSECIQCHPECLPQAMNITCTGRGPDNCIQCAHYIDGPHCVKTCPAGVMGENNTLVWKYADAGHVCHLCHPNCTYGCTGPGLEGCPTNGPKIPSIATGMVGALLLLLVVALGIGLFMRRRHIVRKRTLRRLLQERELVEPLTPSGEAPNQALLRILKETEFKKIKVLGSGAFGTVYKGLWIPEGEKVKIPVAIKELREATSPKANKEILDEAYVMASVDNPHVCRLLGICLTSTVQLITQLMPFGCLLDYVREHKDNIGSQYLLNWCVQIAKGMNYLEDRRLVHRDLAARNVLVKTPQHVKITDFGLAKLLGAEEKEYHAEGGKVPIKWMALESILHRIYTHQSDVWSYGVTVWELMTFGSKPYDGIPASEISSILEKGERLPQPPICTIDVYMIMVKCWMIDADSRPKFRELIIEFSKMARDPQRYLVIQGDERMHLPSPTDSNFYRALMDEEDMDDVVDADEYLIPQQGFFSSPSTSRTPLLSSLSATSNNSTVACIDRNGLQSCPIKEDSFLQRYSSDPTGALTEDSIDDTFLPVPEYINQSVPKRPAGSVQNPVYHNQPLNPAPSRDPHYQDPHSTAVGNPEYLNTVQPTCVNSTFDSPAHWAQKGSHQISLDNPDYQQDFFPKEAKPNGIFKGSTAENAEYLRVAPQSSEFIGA
Experimental: as §1, §2

| IC50 [1] | IC50 [2] | IC50 [3] | IC50 [4] | IC50 [5] | IC50 [6] | IC50 [7] | Compound |
| --- | --- | --- | --- | --- | --- | --- | --- |
| 74.1 nM | 109 nM | 15.8 nM | 12.5 nM | 36.1 nM | 39.8 nM | 86 nM | Cc1nn([C@H]2CNC[C@@H]2O)c2c1/C=C/c1n[nH]c3ccc(cc13)-c1cnn(C)c1OCCCO2 (racemic) [Example 74, (rac)-4-[(17E)-8,16-dimethyl-2,8,11,12-tetrahydro-10H,14H-3,5-etheno[1,5]dioxacyclopentadecino[10,11-c:15,14-c′:6,7-c″ ]tripyrazol-14-yl]pyrrolidin-3-ol] |
| 59.7 nM | 84.3 nM | 21.2 nM | 17.5 nM | 55.9 nM | 28.5 nM | 295 nM | Cc1nn([C@H]2CN(C)C[C@@H]2O)c2c1/C=C/c1n[nH]c3ccc(cc13)-c1cnn(C)c1OCCCO2 (racemic) [Example 75, (rac)-4-[(17E)-8,16-dimethyl-2,8,11,12-tetrahydro-10H,14H-3,5-etheno[1,5]dioxacyclopentadecino[10,11-c:15,14-c′:6,7-c″]tripyrazol-14-yl]-1-methylpyrrolidin-3-ol] |
| 212 nM | 910 nM | 296 nM | 206 nM | 688 nM | 775 nM | > 1000 nM | Cc1nn([C@H]2CC[C@@H]2O)c2c1/C=C/c1n[nH]c3ccc(cc13)-c1cnn(C)c1OCCCO2 (racemic) [Example 78, (rac)-2-[(17E)-8,16-dimethyl-2,8,11,12-tetrahydro-10H,14H-3,5-etheno[1,5]dioxacyclopentadecino[10,11-c:15,14-c′:6,7-c″ ]tripyrazol-14-yl]cyclobutan-1-ol] |
| 38.7 nM | 59.1 nM | 11.2 nM | 4.37 nM | 24.7 nM | 39.2 nM | 50.8 nM | Cc1nn([C@H]2CCNC[C@@H]2O)c2c1/C=C/c1n[nH]c3ccc(cc13)-c1cnn(C)c1OCCCO2 (racemic) [Example 80, (rac)-4-[(17E)-8,16-dimethyl-2,8,11,12-tetrahydro-10H,14H-3,5-etheno[1,5]dioxacyclopentadecino[10,11-c:15,14-c′:6,7-c′]tripyrazol-14-yl]piperidin-3-ol] |
| 27.9 nM | 56.7 nM | 5.77 nM | 1.24 nM | 15.3 nM | 29.8 nM | 67.8 nM | Cc1nn([C@H]2CCN(C)C[C@@H]2O)c2c1/C=C/c1n[nH]c3ccc(cc13)-c1cnn(C)c1OCCCO2 (racemic) [Example 82, (rac)-4-[(17E)-8,16-dimethyl-2,8,11,12-tetrahydro-10H,14H-3,5-etheno[1,5]dioxacyclopentadecino[10,11-c:15,14-c′:6,7-c′]tripyrazol-14-yl]-1-methylpiperidin-3-ol] |
| > 1000 nM | > 1000 nM | > 1000 nM | > 1000 nM | > 1000 nM | > 1000 nM | > 1000 nM | Cc1nn([C@H]2CCOC[C@@H]2O)c2c1/C=C/c1n[nH]c3ccc(cc13)-c1cnn(C)c1OCCCO2 (racemic) [Example 85, (rac)-1,5-anhydr-3o-2,3-dideoxy-3-[(17E)-8,16-dimethyl-2,8,11,12-tetrahydro-10H,14H-3,5-etheno[1,5]dioxacyclopentadecino[10,11-c:15,14-c′:6,7-c″ ]tripyrazol-14-yl]-L-threo-pentitol] |
| > 1000 nM | > 1000 nM | > 1000 nM | > 1000 nM | > 1000 nM | > 1000 nM | > 1000 nM | Cc1nn([C@H]2COCC[C@@H]2O)c2c1/C=C/c1n[nH]c3ccc(cc13)-c1cnn(C)c1OCCCO2 (racemic) [Example 86, (rac)-1,5-anhydro-2,4-dideoxy-2-[(17E)-8,16-dimethyl-2,8,11,12-tetrahydro-10H,14H-3,5-etheno[1,5]dioxacyclopentadecino[10,11-c:15,14-c′:6,7-c″ ]tripyrazol-14-yl]-L-threo-pentitol] |
| > 1000 nM | > 1000 nM | > 1000 nM | > 1000 nM | > 1000 nM | > 1000 nM | > 1000 nM | Cc1c2c(nn1[C@H]1CCOC[C@@H]1O)OCCCOc1c(cnn1C)-c1ccc3[nH]nc(c3c1)/C=C/2 (racemic) [Example 87, (rac)-1,5-anhydro-2,3-dideoxy-3-[(17E)-8,16-dimethyl-2,8,11,12-tetrahydro-10H,15H-3,5-etheno[1,5]dioxacyclopentadecino[10,11-c:15,14-c′:6,7-c″ ]tripyrazol-15-yl]-L-threo-pentitol] |
| 84.9 nM | 148 nM | 12.1 nM | 3.56 nM | 41.1 nM | 27 nM | 119 nM | Cc1nn([C@H]2CN(C)C[C@@H]2O)c2c1/C=C/c1n[nH]c3ccc(cc13)-c1cnn(C)c1CN(C)CCO2 (racemic) [Example 98, (rac)-(3S,4S)-1-methyl-4-[(17E)-8,10,16-trimethyl-2,8,9,10,11,12-hexahydro-14H-3,5-ethenotripyrazolo[3,4-f:4′,3′-j:4″,3″-n][1,4]oxazacyclopentadecin-14-yl]pyrrolidin-3-ol] |
| 93.6 nM | 635 nM | 1.1 nM | 4.58 nM | 161 nM | 20.5 nM | 543 nM | CCOc1nn(CCO)c2c1/C=C/c1n[nH]c3ccc(cc13)-c1cnn(C)c1O[C@H]1CN(C)C[C@@H]1N(C)C2 (single isomer, unassigned) [Ex. 270] |
| 472 nM | > 1000 nM | 31.6 nM | 56.7 nM | 1580 nM | 422 nM | > 1000 nM | CCOc1nn(CCO)c2c1/C=C/c1n[nH]c3ccc(cc13)-c1cnn(C)c1O[C@@H]1CN(C)C[C@H]1N(C)C2 (single isomer, unassigned) [Ex. 271] |
| 147 nM | 233 nM | 63.4 nM | 42.9 nM | 156 nM | 90.8 nM | 538 nM | Cc1nn([C@H]2COC[C@@H]2O)c2c1/C=C/c1n[nH]c3ccc(cc13)-c1cnn(C)c1OCCCO2 (single isomer, unassigned) [Example 76] |
| 124 nM | 312 nM | 19.5 nM | – | 63.8 nM | 34.7 nM | 339 nM | CCc1nn(C)c2c1/C=C/c1n[nH]c3ccc(cc13)-c1cnn(C)c1OCC[C@H](C)O2 [Ex. 14, (12S,17E)-16-ethyl-8,12,14-trimethyl-2,11,12,14-tetrahydro-8H,10H-3,5-etheno[1,5]dioxacyclopentadecino[10,11-c:15,14-c′:6,7-c″]tripyrazole] |
| 139 nM | 286 nM | 26.4 nM | – | 105 nM | 27.5 nM | 419 nM | CCc1nn(C)c2c1/C=C/c1n[nH]c3ccc(cc13)-c1cnn(C)c1OCC[C@@H](C)O2 [Ex. 15, (12R,17E)-16-ethyl-8,12,14-trimethyl-2,11,12,14-tetrahydro-8H,10H-3,5-etheno[1,5]dioxacyclopentadecino[10,11-c:15,14-c′:6,7-c″]tripyrazole] |
| 64 nM | 212 nM | 17.3 nM | – | 41.8 nM | 49.9 nM | 157 nM | CCc1nn(C)c2c1/C=C/c1n[nH]c3ccc(cc13)-c1cnn(C)c1O[C@@H](C)CCO2 [Ex. 37, (10S,17E)-16-ethyl-8,10,14-trimethyl-2,11,12,14-tetrahydro-8H,10H-3,5-etheno[1,5]dioxacyclopentadecino[10,11-c:15,14-c′:6,7-c″]tripyrazole] |
| 112 nM | > 1000 nM | 27 nM | – | 285 nM | 130 nM | 1460 nM | Cc1c2c(nn1C)CN(C)CCOc1c(cnn1C)-c1ccc3[nH]nc(c3c1)/C=C/2 [Example 44, (17E)-8,12,15,16-tetramethyl-2,10,11,12,13,15-hexahydro-8H-3,5-ethenotripyrazolo[3,4-f:3′,4′-j:4″,3″- n][1,4]oxazacyclopentadecine] |

| Compound | IC50 [1] | IC50 [2] | IC50 [3] | IC50 [4] | IC50 [5] | IC50 [6] | IC50 [7] |
| --- | --- | --- | --- | --- | --- | --- | --- |
| Cc1c2c(nn1[C@H]1CCNC[C@@H]1O)OCCCOc1c(cnn1C)-c1ccc3[nH]nc(c3c1)/C=C/2 (racemic) [Example 81, (rac)-4-[(17E)-8,16-dimethyl-2,8,11,12-tetrahydro-10H,15H-3,5-etheno[1,5]dioxacyclopentadecino[10,11-c:15,14-c′:6,7-c″ ]tripyrazol-15-yl]piperidin-3-ol] | 29.6 nM | 40.3 nM | 7.42 nM | 1.7 nM | 16.8 nM | 33.4 nM | 43.8 nM |
